Experimental data taken from PubChem BioAssay AID2060510 (Molecular Pharmacology Branch, DTP, NCI, 2025).

Tested on: 439559-082-T-J2-PDC spheroids viability
Assay: Anticancer human tumor 439559-082-T-J2-PDC patient-derived colon adenocarcinoma cell line growth inhibition [GQUAD]
Details: for IC50: curve of first compound; for viability, T/C: stronger effect = lower value; active = viability on the fitted dose curve at most 10% of control; inactive = the rest
In short: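 Multi-cell-type spheroids of tumor cells with HUVEC and mesenchymal stem cells, treated with drug combinations. Concentrations descend in half-log steps from near clinical Cmax, or from 10 microM where Cmax is unknown; viability read-out.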

[1] = second compound 0.0316 µM, first compound 0.0316 µM
[2] = second compound 0.0316 µM, first compound 0.1 µM
[3] = second compound 0.0316 µM, first compound 0.316 µM
[4] = second compound 0.0316 µM, first compound 1 µM
[5] = second compound 0.0316 µM, first compound 3.16 µM
[6] = second compound 0.0316 µM, first compound 10 µM
[7] = second compound 0.1 µM, first compound 0.0316 µM
[8] = second compound 0.1 µM, first compound 0.1 µM
[9] = second compound 0.1 µM, first compound 0.316 µM
[10] = second compound 0.1 µM, first compound 1 µM
[11] = second compound 0.1 µM, first compound 3.16 µM
[12] = second compound 0.1 µM, first compound 10 µM
[13] = second compound 0.316 µM, first compound 0.0316 µM
[14] = second compound 0.316 µM, first compound 0.1 µM
[15] = second compound 0.316 µM, first compound 0.316 µM
[16] = second compound 0.316 µM, first compound 1 µM
[17] = second compound 0.316 µM, first compound 3.16 µM
[18] = second compound 0.316 µM, first compound 10 µM
[19] = second compound 1 µM, first compound 0.0316 µM
[20] = second compound 1 µM, first compound 0.1 µM
[21] = second compound 1 µM, first compound 0.316 µM
[22] = second compound 1 µM, first compound 1 µM
[23] = second compound 1 µM, first compound 3.16 µM
[24] = second compound 1 µM, first compound 10 µM
[25] = second compound 3.16 µM, first compound 0.0316 µM
[26] = second compound 3.16 µM, first compound 0.1 µM
[27] = second compound 3.16 µM, first compound 0.316 µM
[28] = second compound 3.16 µM, first compound 1 µM
[29] = second compound 3.16 µM, first compound 3.16 µM
[30] = second compound 3.16 µM, first compound 10 µM
[31] = second compound 10 µM, first compound 0.0316 µM
[32] = second compound 10 µM, first compound 0.1 µM
[33] = second compound 10 µM, first compound 0.316 µM
[34] = second compound 10 µM, first compound 1 µM
[35] = second compound 10 µM, first compound 3.16 µM
[36] = second compound 10 µM, first compound 10 µM
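Note: spheroids exposed to the agents for 7 days before readout.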
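Throughout, for viability, T/C: percent of luminescence signal in DMSO vehicle wells taken as 100% viability.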

Cc1cccc(N(C)C(=O)C2C(O)CCN2c2nc(C)cc(C(F)(F)F)c2C#N)c1 (stereo unspecified) + Cc1[nH]c2ccc(F)cc2c1-c1nc2c3cccnc3c3ncccc3c2[nH]1
> 10 µM: IC50 (second compound 0.0316 µM) | IC50 (second compound 0.1 µM) | IC50 (second compound 0.316 µM) | IC50 (second compound 1 µM) | IC50 (second compound 3.16 µM) | IC50 (second compound 10 µM)
inactive: viability, T/C [1] 98.7% | viability, T/C [2] 106% | viability, T/C [3] 99.8% | viability, T/C [4] 103% | viability, T/C [5] 92.8% | viability, T/C [6] 95.9% | viability, T/C [7] 106% | viability, T/C [8] 91.6% | viability, T/C [9] 99.8% | viability, T/C [10] 96.3% | viability, T/C [11] 100% | viability, T/C [12] 92.6% | viability, T/C [13] 98.6% | viability, T/C [14] 101% | viability, T/C [15] 92.7% | viability, T/C [16] 108% | viability, T/C [17] 96.2% | viability, T/C [18] 83.3% | viability, T/C [19] 96.2% | viability, T/C [20] 91.2% | viability, T/C [21] 87.4% | viability, T/C [22] 100% | viability, T/C [23] 88.9% | viability, T/C [24] 88.1% | viability, T/C [25] 78.6% | viability, T/C [26] 77.7% | viability, T/C [27] 93.1% | viability, T/C [28] 88.3% | viability, T/C [29] 84.7% | viability, T/C [30] 77% | viability, T/C [31] 85.5% | viability, T/C [32] 83.6% | viability, T/C [33] 87.5% | viability, T/C [34] 84.9% | viability, T/C [35] 87% | viability, T/C [36] 78.5%

COc1cc(C2c3cc4c(cc3C(OC3OC5COC(C)OC5C(O)C3O)C3COC(=O)C23)OCO4)cc(OC)c1O (stereo unspecified) + CN(C)c1ccc(Nc2c3ccc(NC(=O)CCN4CCCC4)cc3nc3cc(NC(=O)CCN4CCCC4)ccc23)cc1
> 10 µM: IC50 (second compound 0.0316 µM) | IC50 (second compound 0.1 µM) | IC50 (second compound 0.316 µM) | IC50 (second compound 1 µM) | IC50 (second compound 3.16 µM) | IC50 (second compound 10 µM)
inactive: viability, T/C [1] 102% | viability, T/C [2] 93.9% | viability, T/C [3] 103% | viability, T/C [4] 85.6% | viability, T/C [5] 87.1% | viability, T/C [6] 63.8% | viability, T/C [7] 96.4% | viability, T/C [8] 91.8% | viability, T/C [9] 98.4% | viability, T/C [10] 94.7% | viability, T/C [11] 85% | viability, T/C [12] 61.9% | viability, T/C [13] 104% | viability, T/C [14] 104% | viability, T/C [15] 89.6% | viability, T/C [16] 89% | viability, T/C [17] 78.6% | viability, T/C [18] 59.9% | viability, T/C [19] 104% | viability, T/C [20] 94.2% | viability, T/C [21] 89.6% | viability, T/C [22] 90% | viability, T/C [23] 76.5% | viability, T/C [24] 57% | viability, T/C [25] 98% | viability, T/C [26] 87.1% | viability, T/C [27] 104% | viability, T/C [28] 92.5% | viability, T/C [29] 92.4% | viability, T/C [30] 63.3% | viability, T/C [31] 98.5% | viability, T/C [32] 93.3% | viability, T/C [33] 94.9% | viability, T/C [34] 91.3% | viability, T/C [35] 75.9% | viability, T/C [36] 54.5%

Cn1ncnc1[C@H]1c2n[nH]c(=O)c3cc(F)cc(c23)N[C@@H]1c1ccc(F)cc1 + Cc1[nH]c2ccc(F)cc2c1-c1nc2c3cccnc3c3ncccc3c2[nH]1
inactive: viability, T/C (second compound 0.0316 µM, first compound 0.000999 µM) 105% | viability, T/C (second compound 0.0316 µM, first compound 0.00316 µM) 93.7% | viability, T/C (second compound 0.0316 µM, first compound 0.00999 µM) 97.2% | viability, T/C [1] 89.4% | viability, T/C (second compound 0.0316 µM, first compound 0.0999 µM) 90.4% | viability, T/C [3] 92.1% | viability, T/C (second compound 0.1 µM, first compound 0.000999 µM) 103% | viability, T/C (second compound 0.1 µM, first compound 0.00316 µM) 105% | viability, T/C (second compound 0.1 µM, first compound 0.00999 µM) 93.6% | viability, T/C [7] 93.5% | viability, T/C (second compound 0.1 µM, first compound 0.0999 µM) 90% | viability, T/C [9] 88.9% | viability, T/C (second compound 0.316 µM, first compound 0.000999 µM) 113% | viability, T/C (second compound 0.316 µM, first compound 0.00316 µM) 99% | viability, T/C (second compound 0.316 µM, first compound 0.00999 µM) 99.6% | viability, T/C [13] 93.4% | viability, T/C (second compound 0.316 µM, first compound 0.0999 µM) 97.2% | viability, T/C [15] 85.8% | viability, T/C (second compound 1 µM, first compound 0.000999 µM) 87.3% | viability, T/C (second compound 1 µM, first compound 0.00316 µM) 98.5% | viability, T/C (second compound 1 µM, first compound 0.00999 µM) 92% | viability, T/C [19] 94.1% | viability, T/C (second compound 1 µM, first compound 0.0999 µM) 99.2% | viability, T/C [21] 84% | viability, T/C (second compound 3.16 µM, first compound 0.000999 µM) 79.6% | viability, T/C (second compound 3.16 µM, first compound 0.00316 µM) 87.5% | viability, T/C (second compound 3.16 µM, first compound 0.00999 µM) 77.3% | viability, T/C [25] 85.7% | viability, T/C (second compound 3.16 µM, first compound 0.0999 µM) 81.8% | viability, T/C [27] 76.2% | viability, T/C (second compound 10 µM, first compound 0.000999 µM) 85.7% | viability, T/C (second compound 10 µM, first compound 0.00316 µM) 86.7% | viability, T/C (second compound 10 µM, first compound 0.00999 µM) 72.3% | viability, T/C [31] 85.8% | viability, T/C (second compound 10 µM, first compound 0.0999 µM) 82% | viability, T/C [33] 61.8%
> 0.316 µM: IC50 (second compound 0.0316 µM) | IC50 (second compound 0.1 µM) | IC50 (second compound 0.316 µM) | IC50 (second compound 1 µM) | IC50 (second compound 3.16 µM) | IC50 (second compound 10 µM)
